Data taken from patent publication US20260337162A1, “TRYPTAMINE COMPOUNDS, COMPOSITIONS, AND METHODS OF USE” (priority 2022, published 2026).

Key:
[1] = biological target: T1, 5-HT2A receptor (Homo sapiens, UniProt P28223); assay: 5-HT2A receptor functional screening assay (efficacy relative to maximal 5-HT response); assay type: cell-based; details: for activation at 0.5 µM: 500 nM
T1 construct: expressed in transfected cells
Description: 5-HT2 receptor-mediated Gq stimulation [phosphoinositide hydrolysis leading to the production of inositol phosphate 1 (IP1)]-canonical signaling pathways-were measured as previously described (Canal, C. E., Cordova-Sintjago, T., Liu, Y., Kim, M. S., Morgan, D., and Booth, R. G., 2013, Molecular pharmacology and ligand docking studies reveal a single amino acid difference between mouse and human serotonin 5-HT2A receptors that impacts behavioral translation of novel 4-phenyl-2-dimethylaminotetralin ligands, J Pharmacol Exp Ther 347, 705-716; Canal, C. E., Morgan, D., Felsing, D., Kondabolu, K., Rowland, N. E., Robertson, K. L., Sakhuja, R., and Booth, R. G., 2014, A Novel Aminotetralin-Type Serotonin (5-HT)(2C) Receptor —Specific Agonist and 5-HT2A Competitive Antagonist/5-HT2B Inverse Agonist with Preclinical Efficacy for Psychoses, J Pharm Exp Ther 349, 533), for example, with a homogeneous time-resolved fluorescence (HTRF) capable microplate reader (e.g., Mithras LB 940, Berthold) using commercially-available kits employing Fluorescence Resonance Energy Transfer (FRET) technology (e.g., IP-One HTRF (Cisbio) kits). Briefly, CHO-K1 or HEK293 cells expressing a single serotonergic 5-HT2 receptor subtype were incubated with test compounds and 5-HT or DOI (positive control) in stimulation buffer containing LiCl. After equilibration, the reaction was terminated with the donor and acceptor fluorescent conjugates in lysis buffer, and FRET was measured with a microplate reader (Berthold Mithras). Data were fit to non-linear curves to calculate potencies (e.g., EC50) and efficacies (e.g., EMAX), relative to positive controls (e.g., serotonin).

[2] = biological target: T2, human serotonin 5-HT2A receptor (Homo sapiens, UniProt P28223); assay: Radioligand ([3H]LSD) competition binding, 5-HT2A receptor; details: in words; up to 10 μM for partial competition
T2 construct: host or cells: HEK293 (ATCC CRL-1573)
Description: Binding affinity (Ki) and functional potency and efficacy (EC50 and EMAX) values of the compounds were measured.
Radioligand competition binding was performed as previously described (Saraf, T. S., Felsing, D. E., Armstrong, J. L., Booth, R. G., and Canal, C. E., 2021, Evaluation of lorcaserin as an anticonvulsant in juvenile Fmr1 knockout mice, Epilepsy Res 175, 106677), with minor modifications, using human cloned 5-HT2A receptors. Plasmids encoding human serotonin 5-HT2A receptor cDNA were procured from the cDNA Resource Center. Human embryonic kidney cells (HEK293, ATCC CRL-1573) were grown in a cell incubator in 100 mm dishes with antibiotic-free Dulbecco's modified Eagle's medium containing 10% fetal bovine serum. Cells were transfected at ~85% confluency with 5-15 μg cDNA using TransIT-2020 reagent (Mirus Bio, Madison, Wisconsin). After approximately 48 hours, cell membrane was collected via centrifugation. For all experiments, serotonin (5-HT) hydrochloride was used as a positive control, and mianserin hydrochloride (10 μM) was used to define non-specific binding. Each cell membrane homogenate expressing 5-HT2A receptors was incubated at room temperature in 96-well plates with [^3H] […] Following equilibration, each sample was filtered rapidly under vacuum through fiberglass filters presoaked in a buffer and washed by vacuum several times with an ice-cold buffer. Filters were soaked with scintillation fluid and counts per minute were detected using photodetectors (Microbeta Scintillation Counter). […] Data shown are the results from all experiments combined. As is known, G protein-coupled receptors, including the 5-HT2A receptor, can exist in multiple conformations, and ligands, typically agonist ligands, have unique affinities for these conformations of the receptor (Kenakin, T. Theoretical Aspects of GPCR-Ligand Complex Pharmacology, Chem. Rev. 2017, 117, 1, 4-20). […] However, for simplicity reasons, affinity of these compounds are reported herein as fitted to the single-site model. The data point for −10 samples is total specific binding (no compound present), and −4 was interpolated to complete the binding curves to 0 specific binding.

T1 sequence (P28223 whole entry): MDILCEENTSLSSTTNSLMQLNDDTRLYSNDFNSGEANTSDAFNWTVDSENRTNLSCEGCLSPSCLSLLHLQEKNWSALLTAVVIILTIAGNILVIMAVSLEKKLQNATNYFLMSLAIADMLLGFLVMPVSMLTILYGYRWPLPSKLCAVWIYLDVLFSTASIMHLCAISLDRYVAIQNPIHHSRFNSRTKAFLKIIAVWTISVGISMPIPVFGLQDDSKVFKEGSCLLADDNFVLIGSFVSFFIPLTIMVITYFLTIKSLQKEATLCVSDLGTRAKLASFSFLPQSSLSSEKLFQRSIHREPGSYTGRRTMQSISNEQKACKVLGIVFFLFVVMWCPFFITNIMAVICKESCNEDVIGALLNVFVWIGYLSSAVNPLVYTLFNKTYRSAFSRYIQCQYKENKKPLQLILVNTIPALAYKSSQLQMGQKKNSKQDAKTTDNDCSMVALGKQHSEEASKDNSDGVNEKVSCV
T2 sequence (P28223 whole entry): as above

SMILES	activation at 0.5 µM [1] [%]	activation at 50 µM [1] [%]	competition for [3H]LSD-labeled 5-HT2A receptors [2]
CN(C)CCc1c[nH]c2ccc(SC(F)(F)F)cc12 [Compound I-3, N,N-dimethyl-2-(5-((trifluoromethyl)thio)-1H-indol-3-yl) ethan-1-amine]	-34.2	43.9	
FC(F)(F)CCN(CCc1c[nH]c2ccccc12)CCC(F)(F)F [II-3, N-(2-(1H-indol-3-yl)ethyl)-3,3,3-trifluoro-N-(3,3,3-trifluoropropyl) propan-1-amine]	-29.7	> 50	
FC(F)(F)CN(CCc1c[nH]c2ccccc12)CC(F)(F)F [II-10, N-(2-(1H-indol-3-yl)ethyl)-2,2,2-trifluoro-N-(2,2,2-trifluoroethyl) ethan-1-amine]			only partial competition
CN(CCc1c[nH]c2ccccc12)CC(F)F [II-12, N-(2-(1H-indol-3-yl)ethyl)-2,2-difluoro-N-methylethan-1-amine]	19.9	30.3	
FC1(F)CCN(CCc2c[nH]c3ccccc23)CC1 [II-21, 3-(2-(4,4-difluoropiperidin-1-yl)ethyl)-1H-indole]	9.2	-25.4	
Oc1cccc2[nH]cc(CCN(CCC(F)(F)F)CCC(F)(F)F)c12 [III-3, 3-(2-(bis(3,3,3-trifluoropropyl)amino)ethyl)-1H-indol-4-ol]	29.2	> 50	
CN(CCc1c[nH]c2cccc(O)c12)CC(F)F [III-12, 3-(2-((2,2-difluoroethyl)(methyl)amino)ethyl)-1H-indol-4-ol]	17.8	> 50	
